We go through three molecules from patent US9834556B2, “Process of preparing 3-(3-(4-aminocyclobutyl)phenyl)-5-phenyl-3H-imidazo[4,5-B]pyridin-2-YL)pyridin-2-amine” (ARQULE, INC., priority 2014, dated 2017).

Common to all, as to format: physicochemical
Details in all cases: organic solvent or mixture

Series [1] can be described thus: Solubility of 3 in 2-MeTHF/heptane mixtures. The method, then: A series of experiments were performed to test the solubility of 3 in a mixture of 2-MeTHF and heptane.
The nature of series [2]: Solubility of 3 in HOAc, 2-MeTHF and THF. The procedure: Although the reaction was high yielding, the amount of solvent required to perform the reaction limited the throughput due to the poor solubility of 3 in EtOAc. It was therefore desirable to find an alternate solvent for this reaction to prevent the risk of poor conversion while increasing the volume efficiency. To address this issue, the solubility of 3 was evaluated in HOAc and THF in addition to 2-MeTHF. […] In one embodiment, THF is used for the hydrogenation reaction. In another embodiment, 2-MeTHF is used for the hydrogenation reaction. […] In one embodiment, when the hydrogenation reaction was run at 40 psi hydrogen pressure at 40° C., the reaction was typically complete in 2 to 3 hours. The final variable which was investigated was catalyst loading. The initial 10 wt % loading was reduced to 5 wt % without any decrease in reaction time, yield or purity.

Series [3] is described as follows: Solubility of 6 in extraction solvents. The procedure: While this initial trial was very promising, in subsequent experiments on larger scale, complications were encountered. One issue was that during the neutralization of acetic acid, emulsions were often obtained. Multiple solvent systems were investigated and the solubility of 6 was evaluated to estimate the efficiency of the extraction (Table 17).

Series [4] in a line: Solubility of 7 in a selection of solvents. From the text:
Isolation of 7 from the MSA aqueous layer was completed by addition of DCM followed by basification with aqueous NaOH to extract the 7 free base into the DCM layer. […] Isolation from the DCM solution was developed by concentrating the volume of the DCM to induce crystallization followed by the addition of heptane as an anti-solvent. […] Possible solvents candidates which could be used to efficiently extract 7 were limited to DCM due to the poor solubility of 7 in a variety of common solvents (Table 19).

Converted amounts (≈) assume the structure as drawn.

In the case of `CC(C)(C)OC(=O)NC1(c2ccc(Nc3nc(-c4ccccc4)ccc3[N+](=O)[O-])cc2)CCC1` [Compound 3, tert-butyl (1-(4-((3-nitro-6-phenylpyridin-2-yl)amino)phenyl)cyclobutyl)carbamate], the solubility (usually how much of the substance goes into solution per volume) worked out at 100000 µg/mL (≈ 217 mM) in series [1] (2-MeTHF/heptane 1/0 (v/v), 2-MeTHF/heptane (v/v) 1/0, 25° C.); 300 µg/mL (≈ 0.651 mM) in series [1] (2-MeTHF/heptane 2/8 (v/v), 2-MeTHF/heptane (v/v) 2/8, 25° C.); 1200 µg/mL (≈ 2.61 mM) in series [1] (2-MeTHF/heptane 3/7 (v/v), 2-MeTHF/heptane (v/v) 3/7, 25° C.); 3800 µg/mL (≈ 8.25 mM) in series [1] (2-MeTHF/heptane 4/6 (v/v), 2-MeTHF/heptane (v/v) 4/6, 25° C.); 4500 µg/mL (≈ 9.77 mM) in series [1] (2-MeTHF/heptane 5/5 (v/v), 2-MeTHF/heptane (v/v) 5/5, 25° C.); 8000 µg/mL (≈ 17.4 mM) in series [1] (2-MeTHF/heptane 6/4 (v/v), 2-MeTHF/heptane (v/v) 6/4, 25° C.). For the same molecule, the solubility turned out to be 13000 µg/mL (≈ 28.2 mM) in series [1] (2-MeTHF/heptane 7/3 (v/v), 2-MeTHF/heptane (v/v) 7/3, 25° C.); 23000 µg/mL (≈ 49.9 mM) in series [1] (2-MeTHF/heptane 8/2 (v/v), 2-MeTHF/heptane (v/v) 8/2, 25° C.); 32000 µg/mL (≈ 69.5 mM) in series [1] (2-MeTHF/heptane 9/1 (v/v), 2-MeTHF/heptane (v/v) 9/1, 25° C.); 100000 µg/mL (≈ 217 mM) in series [2] (in 2-MeTHF); 24800 µg/mL (≈ 53.9 mM) in series [2] (in HOAc); 155000 µg/mL (≈ 337 mM) in series [2] (in THF).
For the molecule `CC(C)(C)OC(=O)NC1(c2ccc(-n3c(-c4cccnc4N)nc4ccc(-c5ccccc5)nc43)cc2)CCC1` [Compound 6, tert-butyl (1-(4-(2-(2-aminopyridin-3-yl)-5-phenyl-3H-imidazo[4,5-b]pyridin-3-yl)phenyl)cyclobutyl)carbamate], the solubility was found to be 25000 µg/mL (≈ 46.9 mM) in series [3] (Solvent 2-MeTHF); 126000 µg/mL (≈ 237 mM) in series [3] (Solvent DCM); 6600 µg/mL (≈ 12.4 mM) in series [3] (Solvent EtOAc); 2900 µg/mL (≈ 5.44 mM) in series [3] (Solvent IPAc); 690 µg/mL (≈ 1.3 mM) in series [3] (Solvent MTBE); 110000 µg/mL (≈ 207 mM) in series [3] (Solvent THF). Further, in series [3] (Solvent Toluene), the solubility was found to be 4500 µg/mL (≈ 8.45 mM).
For the molecule `Nc1ncccc1-c1nc2ccc(-c3ccccc3)nc2n1-c1ccc(C2(N)CCC2)cc1` [Compound 7, 3-(3-(4-(1-aminocyclobutyl)phenyl)-5-phenyl-3H-imidazo[4,5-b]pyridin-2-yl)pyridin-2-amine], the solubility in series [4] (Solvent 2-MeTHF) was found to be 4800 µg/mL (≈ 11.1 mM); in series [4] (Solvent DCM), 73000 µg/mL (≈ 169 mM); in series [4] (Solvent EtOAc) it was 5600 µg/mL (≈ 12.9 mM); in series [4] (Solvent IPAc), 2900 µg/mL (≈ 6.7 mM); in series [4] (Solvent MTBE) it was 760 µg/mL (≈ 1.76 mM); in series [4] (Solvent THF) it was 24000 µg/mL (≈ 55.5 mM). The solubility in series [4] (Solvent Toluene) worked out at 9300 µg/mL (≈ 21.5 mM).
